Results taken from US20240360151A1 (SANOFI, priority 2023, published 2024).

Target: T1, NLRP3 inflammasome (Homo sapiens, UniProt Q96P20)
T1 construct: endogenous in cells; host or cells: THP-1 monocytic cells
Assay: IL-1β secretion assay (NLRP3 IC50) in LPS-primed, nigericin-activated THP-1 cells, HTRF
Format: cell-based
Settings: monocytic THP-1 cells; LPS 10 ng/mL 3 h priming, then compound + nigericin 10 μM 2 h; relative IC50, 10 concentrations, geometric mean
Experimental: Monocytic THP-1 cells were maintained in RPMI 1640 media (Gibco 21875)+10% FBS, (Gibco 10500)+1% penicillin/streptomycin (Gibco 15140-122). Cells were then plated at 40,000 cells per well in 384-well cell culture plates (CoRNning 3542) and maintained with RPMI1640 (Gibco 11835)+5% FBS (Gibco 10500). Activation of the NLRP3 inflammasome requires both an NF-kB-dependent priming step and the addition of a NLRP3 activator. The priming step was induced by LPS (10 ng/mL, InvivoGen ref tlrl-3pelps) for 3 h at 37° C., then compound, in a 1:3 serial dilution series in DMSO (final concentration DMSO 0.1%), and the activator nigericin (Sigma Aldrich, ref: SML1779) 10 μM (final concentration) were added to the cells and co-incubated for 2 hours. 16 μL supernatant was removed, and IL-1β levels were monitored using an HTRF assay (Human IL1b Kits HTRF Cisbio ref: 62HILBPEH) according to manufacturers' instructions.
Data were expressed as percentage of inhibition (I %) as compared to a maximum signal control containing no small molecule (I %=0%) according to the formula: 1%=(1−((Sample−Min))/((Max−Min)))×100, where: • Sample: Signal obtained in the presence of each compound tested, • Max: Maximum signal in the absence of compound added, • Min: Minimum or background signal obtained in the absence of activation signal.
Relative IC50 (IC50 rel) were obtained from a dose response curve with 10 concentrations. Final IC50 rels are expressed as the geometric mean.
Relative IC50 values were estimated with Biost@t-SPEED v2.4 internal software based on SAS system using the 4-parameter logistic model according to Ratkovsky and Reedy (D. A. Ratkovsky, T. J. Reedy, Choosing near-linear parameters in the four parameters logistic model radioligands and related assays. Biometrics, 42 (1986), 575-582): Y=A+C/((1+exp(−B*(log(X)−M)))), where: • A: Lower asymptote (BOTTOM), • A+C: Upper asymptote (TOP), • M: the logarithm of the concentration estimated at the inflexion point (the logarithm of the relative IC50), • B: Slope at the inflexion point of the curve.

T1 sequence (Q96P20 whole entry): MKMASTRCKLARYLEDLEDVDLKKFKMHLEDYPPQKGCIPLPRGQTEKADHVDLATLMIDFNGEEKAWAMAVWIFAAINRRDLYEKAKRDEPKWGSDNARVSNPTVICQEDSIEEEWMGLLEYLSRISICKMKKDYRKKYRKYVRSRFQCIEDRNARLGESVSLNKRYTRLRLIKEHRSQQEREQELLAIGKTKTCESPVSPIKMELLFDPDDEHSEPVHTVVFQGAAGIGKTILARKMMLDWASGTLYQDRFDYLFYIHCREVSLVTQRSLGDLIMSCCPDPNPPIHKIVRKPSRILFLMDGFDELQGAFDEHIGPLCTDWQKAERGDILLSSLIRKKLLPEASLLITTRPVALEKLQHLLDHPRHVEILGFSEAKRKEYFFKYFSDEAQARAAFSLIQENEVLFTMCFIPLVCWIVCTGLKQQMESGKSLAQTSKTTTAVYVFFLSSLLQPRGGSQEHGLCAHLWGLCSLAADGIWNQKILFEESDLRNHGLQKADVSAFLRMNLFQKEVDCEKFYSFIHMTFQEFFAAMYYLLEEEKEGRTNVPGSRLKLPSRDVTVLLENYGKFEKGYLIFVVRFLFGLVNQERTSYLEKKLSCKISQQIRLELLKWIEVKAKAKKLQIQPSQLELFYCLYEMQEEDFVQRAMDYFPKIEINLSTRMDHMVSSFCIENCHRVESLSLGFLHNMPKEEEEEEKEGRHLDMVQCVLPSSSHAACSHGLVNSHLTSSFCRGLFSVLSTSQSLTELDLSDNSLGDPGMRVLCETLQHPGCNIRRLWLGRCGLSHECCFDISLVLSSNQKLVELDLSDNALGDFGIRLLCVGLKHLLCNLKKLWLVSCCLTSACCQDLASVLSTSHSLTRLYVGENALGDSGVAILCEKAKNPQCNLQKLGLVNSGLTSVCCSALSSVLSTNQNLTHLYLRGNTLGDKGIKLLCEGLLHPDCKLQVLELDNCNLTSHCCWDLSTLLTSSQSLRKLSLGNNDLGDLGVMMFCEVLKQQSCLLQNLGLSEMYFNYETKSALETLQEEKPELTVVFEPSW

Structure (SMILES)	IC50
CC(=O)N1CC[C@H]2CCN(c3nnc(-c4c(C)cc(C)cc4O)cc3C(F)F)[C@H]2C1 (single isomer, unassigned) [Example 513]	1.77 µM
CC(=O)NC1CC2(CCN(c3ccc(-c4c(O)cc(Cl)cc4Cl)nn3)CC2)C1 [Example 47, N-[7-[6-(2,4-dichloro-6-hydroxy-phenyl)pyridazin-3-yl]-7-azaspiro[3.5]nonan-2-yl]acetamide]	1.04 µM
Cc1cc(C)c(-c2ccc(N3CC4(CC[C@@H](O)C4)C3)nn2)c(O)c1 (stereo in doubt) [Example 94, 2-[6-(2-hydroxy-4,6-dimethyl-phenyl)pyridazin-3-yl]-2-azaspiro[3.4]octan-6-ol]	1.92 µM
Cc1cc(C)c(-c2ccc(N3CCC[C@@H]4CCN(C)C(=O)[C@@H]43)nn2)c(O)c1 (racemic) [Example 290, rac-(4aR,8aR)-1-[6-(2-hydroxy-4,6-dimethyl-phenyl)pyridazin-3-yl]-7-methyl-3,4,4a,5,6,8a-hexahydro-2H-1,7-naphthyridin-8-one]	0.145 µM
CC(=O)N1CCC[C@@H]2[C@H]1CCCN2c1ccc(-c2c(C)cc(C(F)(F)F)cc2O)nn1 [Example 462, 1-[(4aR,8aR)-5-[6-[2-hydroxy-6-methyl-4-(trifluoromethyl)phenyl]pyridazin-3-yl]-2,3,4,4a,6,7,8,8a-octahydro-1,5-naphthyridin-1-yl]ethanone]	0.251 µM
CC(=O)N1CC[C@@H]2CCN(c3cc(C(F)F)c(-c4ccc(C(F)(F)F)cc4O)nn3)[C@@H]2C1 (single isomer, unassigned) [Example 510]	0.28 µM
Cc1cc(C)c(-c2ccc(N3CCO[C@@H]4CNC[C@H]43)nn2)c(O)c1 (racemic) [Example 190, 2-[6-[rac-(4aR,7aR)-3,4a,5,6,7,7a-hexahydro-2H-pyrrolo[3,4-b][1,4]oxazin-4-yl]pyridazin-3-yl]-3,5-dimethylphenol]	1.15 µM
Cc1cc(C(F)(F)F)cc(O)c1-c1ccc(N2CCO[C@@H]3CN(C)C[C@@H]32)nn1 (single isomer, unassigned) [Example 334]	0.073 µM
Cc1cc(C)c(-c2ccc(N3CCO[C@H](C4(N)CC4)C3)nn2)c(O)c1 (single isomer, unassigned) [Example 135]	0.997 µM
CC(=O)N1CCC2OCCN(c3ccc(-c4c(C)cc(C(F)(F)F)cc4O)nn3)C2C1 (single isomer, unassigned) [Example 336]	1.16 µM
Cc1cc(C)c(-c2ccc(N3CCOc4cnccc43)nn2)c(O)c1 [Example 215, 2-[6-(2,3-dihydropyrido[3,4-b][1,4]oxazin-1-yl)pyridazin-3-yl]-3,5-dimethyl-phenol]	1.46 µM

Now from value to molecule:

IC50	Structure (SMILES)
0.758 µM	Cc1cc(C)c(-c2ccc(N3CC[C@@H]3CO)nn2)c(O)c1 [Example 118, 2-[6-[(2R)-2-(hydroxymethyl)azetidin-1-yl]pyridazin-3-yl]-3,5-dimethyl-phenol]
0.496 µM	Cc1cc(C)c(-c2ccc(N3CCO[C@H]4CCN(C)C[C@H]43)nn2)c(O)c1 [Example 310, 2-[6-[(4aR,8aS)-6-methyl-3,4a,5,7,8,8a-hexahydro-2H-pyrido[4,3-b][1,4]oxazin-4-yl]pyridazin-3-yl]-3,5-dimethyl-phenol]
0.564 µM	O=S1(=O)CCN(c2ccc(-c3c(O)cc(Cl)cc3Cl)nn2)CC1 [Example 399, 3,5-dichloro-2-[6-(1,1-dioxo-1,4-thiazinan-4-yl)pyridazin-3-yl]phenol]
0.276 µM	CC(=O)N1CC[C@@H]2CCN(c3nnc(-c4c(C)cc(C)cc4O)cc3C(F)F)[C@@H]2C1 (single isomer, unassigned) [Example 512]
1.06 µM	CCC(=O)C1CN(c2ccc(-c3c(C)cc(C)cc3O)nn2)CCO1 (single isomer, unassigned) [Example 156]
0.005 µM	CCN1CC[C@H]2OCCN(c3cc(C)c(-c4ccc(F)cc4O)nn3)[C@H]2C1 [Example 479, 2-[6-[(4aS,8aR)-6-ethyl-3,4a,5,7,8,8a-hexahydro-2H-pyrido[4,3-b][1,4]oxazin-4-yl]-4-methyl-pyridazin-3-yl]-5-fluoro-phenol]
